Data: patent publication US11566007B2, “Ras inhibitors” (Revolution Medicines, Inc., priority 2019, dated 2023)
pEC50, pIC50: −log10 of the molar value. Read-outs that look alike come from different tables or passages of the source.

Experiments:
KRAS G12S = KRAS G12S (Homo sapiens (Human), UniProt P01116+P62937, G12S); assay: Ras-Raf (BRAF RBD) disruption / FRET / MOA assay, KRAS G12S; assay type: biochemical
Summary of the method: (§1)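 Ras:RAF disruption was scored as a fall in TR-FRET ratio relative to DMSO. Compound ranged in 3-fold steps over 10 points from 30 μM final; incubation ran 3 h at 25° C, detection antibodies a further 1.5 h. Reported as IC50.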

NCI-H358 (K-Ras G12C) = assay: CellTiter-Glo cell viability assay, NCI-H358; assay type: cell-based, human; conditions: NCI-H358, 5-day treatment, class symbols, read-out: Additional H358 Cell Viability assay data (K-Ras G12C, IC50)
Summary of the method: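 Viability of K-Ras mutant lines is measured by ATP luminescence after five days of compound treatment. Percent of DMSO control is calculated and dose-response data are fitted with a four-parameter logistic equation.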

KRAS G12D = KRAS G12D (Homo sapiens (Human), UniProt P01116+P62937, G12D); assay: Ras-Raf (BRAF RBD) disruption / FRET / MOA assay, KRAS G12D; assay type: biochemical
KRAS G12D, sequence (P01116-2 other isoform, or with tags, fused parts or gaps G12D): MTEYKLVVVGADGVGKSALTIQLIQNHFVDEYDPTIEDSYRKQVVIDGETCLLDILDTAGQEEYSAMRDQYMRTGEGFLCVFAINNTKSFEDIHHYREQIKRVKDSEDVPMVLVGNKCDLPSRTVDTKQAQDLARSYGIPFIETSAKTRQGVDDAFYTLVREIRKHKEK
KRAS G12D, sequence (P62937 whole entry): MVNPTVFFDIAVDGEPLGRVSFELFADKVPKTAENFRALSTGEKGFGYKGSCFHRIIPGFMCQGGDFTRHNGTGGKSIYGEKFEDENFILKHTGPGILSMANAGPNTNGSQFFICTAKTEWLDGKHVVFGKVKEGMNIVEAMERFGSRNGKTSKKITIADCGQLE
Summary of the method: as §1

[1] = system: NCI-H358 cells (K-Ras G12C); assay: Potency assay: pERK in NCI-H358 cells; assay type: cell-based, human; conditions: H358 KRAS G12C, read-out: pERK EC50
Summary of the method: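 4 h cpd, 37 °C; 10-pt 3-fold series, 10 mM DMSO top stock, duplicates. Readout pERK: AlphaLISA SureFire Ultra or In-Cell Western (IR-800CW secondary, DRAQ5 DNA stain). IC50, 4-PL fit vs log conc.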

KRAS Q61H = KRAS Q61H (Homo sapiens (Human), UniProt P01116+P62937, Q61H); assay: Ras-Raf (BRAF RBD) disruption / FRET / MOA assay, KRAS Q61H; assay type: biochemical
KRAS Q61H, sequence (P01116-2 other isoform, or with tags, fused parts or gaps Q61H): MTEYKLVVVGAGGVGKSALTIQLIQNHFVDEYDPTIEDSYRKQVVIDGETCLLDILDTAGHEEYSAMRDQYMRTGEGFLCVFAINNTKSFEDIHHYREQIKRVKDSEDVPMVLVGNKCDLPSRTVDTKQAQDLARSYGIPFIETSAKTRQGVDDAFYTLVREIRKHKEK
KRAS Q61H, sequence (P62937 whole entry, canonical isoform): as the sequence (P62937 whole entry) above
Procedure: (§2) The purpose of this biochemical assay is to measure the ability of test compounds to facilitate ternary complex formation between a nucleotide-loaded Ras isoform and cyclophilin A; the resulting ternary complex disrupts binding to a BRAF^RBD construct, inhibiting Ras signaling through a RAF effector.
(§3) […]. Compound is present in plate wells as a 10-point 3-fold dilution series starting at a final concentration of 30 μM. After incubation at 25° C. for 3 hours, a mixture of Anti-His Eu-W1024 and anti-GST allophycocyanin is then added to assay sample wells at final concentrations of 10 nM and 50 nM, respectively, and the reaction incubated for an additional 1.5 hours. […] Compounds that facilitate disruption of a Ras:RAF complex are identified as those eliciting a decrease in the TR-FRET ratio relative to DMSO control wells.
(§4) Note—The following protocol describes a procedure for monitoring disruption of K-Ras G12C (GMP-PNP) binding to BRAF^RBD by a compound of the invention. This protocol may also be executed substituting other Ras proteins or nucleotides.
(§5) The purpose of this biochemical assay was to measure the ability of test compounds to facilitate ternary complex formation between a nucleotide-loaded K-Ras isoform and Cyclophilin A; the resulting ternary complex disrupts binding to a BRAF^RBD construct, inhibiting K-Ras signaling through a RAF effector. Data is reported as IC50 values.
as §3, with “Compound was” for “Compound is”, “allophycocyanin was” for “allophycocyanin is”, “a K-Ras:RAF” for “a Ras:RAF”, “complex were” for “complex are”

NRAS G12C = NRAS G12C (Homo sapiens (Human), UniProt P01111+P62937, G12C); assay: Ras-Raf (BRAF RBD) disruption / FRET / MOA assay, NRAS G12C; assay type: biochemical; conditions: read-out: IC50* NRAS G12C FRET data
NRAS G12C, sequence (P01111 whole entry G12C): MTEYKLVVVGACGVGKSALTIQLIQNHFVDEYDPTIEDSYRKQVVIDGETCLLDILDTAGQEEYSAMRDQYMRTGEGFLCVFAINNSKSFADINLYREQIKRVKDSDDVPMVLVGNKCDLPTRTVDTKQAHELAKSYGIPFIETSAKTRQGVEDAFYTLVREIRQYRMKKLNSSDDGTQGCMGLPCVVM
NRAS G12C, sequence (P62937 whole entry): as the sequence (P62937 whole entry) above
Summary of the method: as §1

K-Ras G13C = K-Ras G13C (Homo sapiens (Human), UniProt P01116+P62937, G13C); assay: Ras-Raf (BRAF RBD) disruption / FRET / MOA assay, KRAS G13C; assay type: biochemical; conditions: KRAS G13C; Ras-Raf disruption/FRET/MOA assay; read-out: IC50* KRAS G13C FRET data
K-Ras G13C, sequence (P01116-2 other isoform, or with tags, fused parts or gaps G13C): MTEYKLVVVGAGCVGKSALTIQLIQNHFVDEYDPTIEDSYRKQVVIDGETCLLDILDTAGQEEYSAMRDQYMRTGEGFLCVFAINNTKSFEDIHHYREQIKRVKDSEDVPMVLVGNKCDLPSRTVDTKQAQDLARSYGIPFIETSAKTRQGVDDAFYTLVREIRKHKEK
K-Ras G13C, sequence (P62937 whole entry): as the sequence (P62937 whole entry) above
Summary of the method: as §1

NRAS Q61R = NRAS Q61R (Homo sapiens (Human), UniProt P01111+P62937, Q61R); assay: Ras-Raf (BRAF RBD) disruption / FRET / MOA assay, NRAS Q61R; assay type: biochemical; conditions: NRAS Q61R; Ras-Raf disruption/FRET/MOA assay; read-out: IC50* NRAS Q61R FRET data
NRAS Q61R, sequence (P01111 whole entry Q61R): as the sequence (P01111 whole entry G12C) above, with C12G, Q61R counted along it
NRAS Q61R, sequence (P62937 whole entry): as the sequence (P62937 whole entry) above
Procedure: as §2, §3, §4, §5
as §3, with “Compound was” for “Compound is”, “allophycocyanin was” for “allophycocyanin is”, “a K-Ras:RAF” for “a Ras:RAF”, “complex were” for “complex are”

NRAS WT = NRAS WT (Homo sapiens (Human), UniProt P01111+P62937); assay: Ras-Raf (BRAF RBD) disruption / FRET / MOA assay, NRAS WT; assay type: biochemical; conditions: read-out: IC50* NRAS WT FRET data
NRAS WT, sequence (P01111 whole entry): as the sequence (P01111 whole entry G12C) above, with C12G counted along it
NRAS WT, sequence (P62937 whole entry): as the sequence (P62937 whole entry) above
Procedure: as §2, §3, §4, §5
as §3, with “Compound was” for “Compound is”, “allophycocyanin was” for “allophycocyanin is”, “a K-Ras:RAF” for “a Ras:RAF”, “complex were” for “complex are”

KRAS WT = KRAS WT (Homo sapiens (Human), UniProt P01116+P62937); assay: Ras-Raf (BRAF RBD) disruption / FRET / MOA assay, KRAS WT; assay type: biochemical; conditions: read-out: IC50* KRAS WT FRET data
KRAS WT, sequence (P01116-2 other isoform, or with tags, fused parts or gaps): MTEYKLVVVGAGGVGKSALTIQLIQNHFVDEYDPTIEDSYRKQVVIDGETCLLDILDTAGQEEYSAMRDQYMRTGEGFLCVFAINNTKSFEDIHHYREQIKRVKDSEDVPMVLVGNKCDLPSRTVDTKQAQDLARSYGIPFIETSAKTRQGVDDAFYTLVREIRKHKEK
KRAS WT, sequence (P62937 whole entry): as the sequence (P62937 whole entry) above
Summary of the method: as §1

KRAS G12V = KRAS G12V (Homo sapiens (Human), UniProt P01116+P62937, G12V); assay: Ras-Raf (BRAF RBD) disruption / FRET / MOA assay, KRAS G12V; assay type: biochemical; conditions: read-out: IC50* KRAS G12V FRET data
KRAS G12V, sequence (P01116-2 other isoform, or with tags, fused parts or gaps G12V): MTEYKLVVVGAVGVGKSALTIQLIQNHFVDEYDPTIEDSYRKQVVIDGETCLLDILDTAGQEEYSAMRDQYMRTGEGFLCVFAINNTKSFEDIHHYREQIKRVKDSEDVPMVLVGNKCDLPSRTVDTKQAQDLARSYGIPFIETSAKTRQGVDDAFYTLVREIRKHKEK
KRAS G12V, sequence (P62937 whole entry): as the sequence (P62937 whole entry) above
Summary of the method: as §1

NRAS Q61K = NRAS Q61K (Homo sapiens (Human), UniProt P01111+P62937, Q61K); assay: Ras-Raf (BRAF RBD) disruption / FRET / MOA assay, NRAS Q61K; assay type: biochemical; conditions: NRAS Q61K; Ras-Raf disruption/FRET/MOA assay; read-out: IC50* NRAS Q61K FRET data
NRAS Q61K, sequence (P01111 whole entry Q61K): as the sequence (P01111 whole entry G12C) above, with C12G, Q61K counted along it
NRAS Q61K, sequence (P62937 whole entry): as the sequence (P62937 whole entry) above
Procedure: as §2, §3, §4, §5
as §3, with “Compound was” for “Compound is”, “allophycocyanin was” for “allophycocyanin is”, “a K-Ras:RAF” for “a Ras:RAF”, “complex were” for “complex are”

[2] = Ras-Raf disruption/FRET/MOA assay; class symbols; read-out: KRAS G12S FRET data IC50
[3] = Ras-Raf disruption/FRET/MOA assay; class symbols; read-out: KRAS G12D FRET data IC50
[4] = Ras-Raf disruption/FRET/MOA assay; class symbols; read-out: KRAS Q61H FRET data IC50

KRAS G12S, sequence (P01116-2 other isoform, or with tags, fused parts or gaps G12S): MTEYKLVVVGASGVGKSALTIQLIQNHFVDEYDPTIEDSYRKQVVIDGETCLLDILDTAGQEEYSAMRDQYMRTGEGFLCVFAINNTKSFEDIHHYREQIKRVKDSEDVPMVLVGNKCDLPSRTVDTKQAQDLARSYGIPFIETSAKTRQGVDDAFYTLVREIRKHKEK
KRAS G12S, sequence (P62937 whole entry): as the sequence (P62937 whole entry) above

Compound	pIC50 (KRAS G12S; read-out: KRAS G12S FRET data IC50; Ras-Raf disruption/FRET/MOA assay; class symbols)	pIC50 (NCI-H358 (K-Ras G12C); Homo sapiens, NCI-H358, 120 h)	pIC50 (KRAS G12D; read-out: KRAS G12D FRET data IC50; Ras-Raf disruption/FRET/MOA assay; class symbols)	pEC50 ([1]; Homo sapiens, NCI-H358)	pIC50 (KRAS Q61H; read-out: KRAS Q61H FRET data IC50; Ras-Raf disruption/FRET/MOA assay; class symbols)	pIC50 (KRAS G12S; [2])	pIC50 (NCI-H358 (K-Ras G12C))	pIC50 (KRAS G12D; [3])	pEC50 [1]	pIC50 (KRAS Q61H; [4])	pIC50 (NRAS G12C)	pIC50 (K-Ras G13C)	pIC50 (NRAS Q61R)	pIC50 (NRAS WT)	pIC50 (KRAS WT)	pIC50 (KRAS G12V)	pIC50 (NRAS Q61K)
C=CC(=O)N1CC[C@H](C(=O)N(C)[C@H](C(=O)N[C@H]2Cc3cc(sn3)-c3ccc4c(c3)c(c(-c3cccnc3[C@H](C)OC)n4CC)CC(C)(C)COC(=O)[C@@H]3CCCN(N3)C2=O)C(C)C)C1 (atropisomer, axis not shown) [Example A277]	5.00 to 6.00	6.00 to 7.00	< 5.00	> 5.30	6.00 to 7.00												
C=CC(=O)N1CC[C@H](C(=O)N(C)[C@H](C(=O)N[C@H]2CC3=NC=C(O3)c3ccc4c(c3)c(c(-c3cccnc3[C@H](C)OC)n4CC)CC(C)(C)COC(=O)[C@@H]3CCCN(N3)C2=O)C(C)C)C1 (atropisomer, axis not shown) [Example A331]						5.00 to 6.00	6.00 to 7.00	< 5.00	> 5.30	5.00 to 6.00							
CCn1c(-c2cccnc2[C@H](C)OC)c2c3cc(ccc31)-c1cccc(c1)C[C@H](NC(=O)[C@H](C(C)C)N(C)C(=O)[C@H]1CCN(C(=O)C#CC(C)(C)N(C)C)C1)C(=O)N1CCC[C@H](N1)C(=O)OCC(C)(C)C2 (atropisomer, axis not shown) [Example A339]						5.00 to 6.00	> 8.00	< 5.00	> 5.30	5.00 to 6.00							
C=CC(=O)N(C)[C@H]1CCN(C(=O)N(C)[C@H](C(=O)N[C@H]2Cc3nc(cs3)-c3ccc4c(c3)c(c(-c3cccnc3[C@H](C)OC)n4CC)CC(C)(C)COC(=O)[C@@H]3CCCN(N3)C2=O)C(C)C)C1 (atropisomer, axis not shown) [Example A384]		> 8.00		> 5.30		6.00 to 7.00		6.00 to 7.00			7.00 to 8.00	6.00 to 7.00	6.00 to 7.00	6.00 to 7.00	6.00 to 7.00	6.00 to 7.00	7.00 to 8.00
C=CC(=O)N1CCN(C(=O)N(C)[C@H](C(=O)N[C@H]2Cc3nc(cs3)-c3ccc4c(c3)c(c(-c3cccnc3[C@H](C)OC)n4CC)CC(C)(C)COC(=O)[C@@H]3CCCN(N3)C2=O)C(C)C)CC1 (atropisomer, axis not shown) [Example A492]						7.00 to 8.00	> 8.00	6.00 to 7.00	> 5.30	7.00 to 8.00							
C=CC(=O)N1CCN(C(=O)N(C)[C@H](C(=O)N[C@H]2Cc3nc(cs3)-c3ccc4c(c3)c(c(-c3cccnc3[C@H](C)OC)n4CC)CC(C)(C)COC(=O)[C@@H]3CCCN(N3)C2=O)C(C)C)CC1 (atropisomer, axis not shown) [Example A493]						7.00 to 8.00	> 8.00	6.00 to 7.00	> 5.30	7.00 to 8.00							
